According to patent US5972955A, “Water soluble C-ring analogues of 20(S)-camptothecin” (Dr. Reddy's Research Foundation, priority 1996, dated 1999):

test system: NCI's 60 human tumor cell line assay; assay: NCI 60 human tumor cell line assay, mean growth inhibition (Table 1); assay type: cell-based; conditions: read-out: IC50 = the mean value of the minimum drug concentration of the agent required to produce 50% cell growth inhibition (GI50); mean over NCI's 60 human tumor cell lines; 48 h; Sulforhodamine B
Description: Inoculates were allowed a preincubation period of 24 h at 37° C. for stabilization.
^a IC50 = the mean value of the minimum drug concentration (μm) of
NCI's 60 human tumor cell line assay.

Compared with `CCN(CC)CCNC1c2cc3c(OC)cccc3nc2-c2cc3c(c(=O)n21)COC(=O)[C@]3(O)CC` (stereo partly drawn) [9-Methoxy-5-(N,N-diethylethylenediamino) CPT], `CCN(CC)CCCNC1c2cc3c(OC)cccc3nc2-c2cc3c(c(=O)n21)COC(=O)C3(O)CC` (stereo not drawn) [9-Methoxy-5-(N,N-diethylpropylenediamino) CPT] is 2.3-fold lower in IC50: 19.1 µM for the first, 8.31 µM for the second. The second is the more potent here.

`CC[C@@]1(O)C(=O)OCc2c1cc1n(c2=O)C(NCCN2CCOCC2)c2cc3c(OC)cccc3nc2-1` (stereo partly drawn) [9-Methoxy-5-morphilinoethylamino CPT] and `CC[C@@]1(O)C(=O)OCc2c1cc1n(c2=O)C(NCCN2CCCC2)c2cc3c(OC)cccc3nc2-1` (stereo partly drawn) [9-Methoxy-5-pyrrolidinoethylamino CPT] cannot be ordered by IC50: > 30 µM for the first, 31.6 µM for the second.

First: CC[C@@]1(O)C(=O)OCc2c1cc1n(c2=O)C(NCCN2CCCCC2)c2cc3c(OC)cccc3nc2-1 (stereo partly drawn) [9-Methoxy-5-piperidinoethylamino CPT]
Second: CC[C@@]1(O)C(=O)OCc2c1cc1n(c2=O)C(NCCO)c2cc3ccccc3nc2-1 (stereo partly drawn) [Example 2, 5-(2'-hydroxyethylamino)camptothecin]
The IC50 of the first is lower: 28.1 µM for the first, > 30 µM for the second. The first is the more potent here.
